In the data set the test system is Human lung adenocarcinoma cell line A549. In words: In vitro cytotoxicity test of camptothecin payloads (CellTiter-Glo). Type of data set: cell-based. The note with it: for IC50: Homo sapiens, A549, 72 h, read-out: A549 Cytotoxicity IC50 (nM). How it is done:
Human lung adenocarcinoma cell line A549 was used to evaluate the cytotoxicity of small molecule fragment of the present invention. A549 cells were seeded to a 96-well plate at 2000 cells per well.

Experimental findings from US20250367308A1, “LIGAND-DRUG CONJUGATE OF CAMPTOTHECIN ANALOGS, INTERMEDIATES, PREPARATION METHOD THEREFOR, PHARMACEUTICAL COMPOSITION AND APPLICATION THEREOF” (SHANGHAI MICURX PHARMACEUTICAL CO.,LTD., priority 2022, published 2025) are described below.

Where two headings read alike, the source gives them in different places.

For the compound `CC[C@@]1(O)C(=O)OCc2c1cc1n(c2=O)Cc2c-1nc1cc(F)c(C)c3c1c2[C@@H](NC(=O)CO)CC3` [Dxd, reference compound], the IC50 is 78 nM.

For the compound `CC[C@@]1(O)C(=O)OCc2c1cc1n(c2=O)Cc2c-1nc1cc(F)c(C)cc1c2CN1CC[C@@H](O)C1=O` [Example 1, (S)-4-ethyl-8-fluoro-4-hydroxy-11-(((R)-3-hydroxy-2-oxopyrrolidin-1-yl)methyl)-9-methyl-1H-pyrano[3′,4′:6,7] indolizino[1,2-b]quinoline-3,14(4H,12H)-dione], the IC50 is 515 nM. The “relative A549 cytotoxic potency in words” value (comparison between analogs of Table 1) is recorded as “much less potent”.

On to `CC[C@@]1(O)C(=O)OCc2c1cc1n(c2=O)Cc2c-1nc1cc(F)c(C)cc1c2CN1CCC(O)C1` (stereo partly drawn) [Example 2, (4S)-4-ethyl-8-fluoro-4-hydroxy-11-((3-hydroxypyrrolidin-1-yl)methyl)-9-methyl-1H-pyrano[3′,4′:6,7] indolizino[1,2-b]quinoline-3,14(4H,12H)-dione], for which the concentration for half-maximal inhibition (IC50) turned out to be 138 nM.

As to `CC[C@@]1(O)C(=O)OCc2c1cc1n(c2=O)Cc2c-1nc1cc(F)c(C)cc1c2CN1CCCC1CO` (stereo partly drawn) [Example 5, (4S)-4-ethyl-8-fluoro-4-hydroxy-11-((2-(hydroxymethyl)pyrrolidin-1-yl)methyl)-9-methyl-1H-pyrano[3′,4′:6,7] indolizino[1,2-b]quinoline-3,14(4H,12H)-dione], the IC50 amounted to 65 nM.

For `CC[C@@]1(O)C(=O)OCc2c1cc1n(c2=O)Cc2c-1nc1cc(F)c(C)cc1c2CN1CCC(CO)C1` (stereo partly drawn) [Example 8, (4S)-4-ethyl-8-fluoro-4-hydroxy-11-((3-(hydroxymethyl)pyrrolidin-1-yl)methyl)-9-methyl-1H-pyrano[3′,4′:6,7] indolizino[1,2-b]quinoline-3,14(4H,12H)-dione], the IC50 was found to be 82 nM.

`CC[C@@]1(O)C(=O)OCc2c1cc1n(c2=O)Cc2c-1nc1cc(F)c(C)cc1c2CN1CC(O)C1` [Example 9, (S)-4-ethyl-8-fluoro-4-hydroxy-11-((3-hydroxyazetidin-1-yl)methyl)-9-methyl-1H-pyrano[3′,4′:6,7] indolizino[1,2-b]quinoline-3,14(4H,12H)-dione]: the IC50 is 550 nM.

Take `CC[C@@]1(O)C(=O)OCc2c1cc1n(c2=O)Cc2c-1nc1cc(F)c(C)cc1c2CN1CCC(CO)CC1` [Example 10, (S)-4-ethyl-8-fluoro-4-hydroxy-11-((4-(hydroxymethyl)piperidin-1-yl)methyl)-9-methyl-1H-pyrano[3′,4′:6,7] indolizino[1,2-b]quinoline-3,14(4H,12H)-dione]: the half-inhibitory concentration (IC50) amounted to 67 nM. The “relative A549 cytotoxic potency in words” value (human, 3 days) is reported as “less potent than Example 17”.

`CC[C@@]1(O)C(=O)OCc2c1cc1n(c2=O)Cc2c-1nc1cc(F)c(C)cc1c2CN1CCCCC1CO` (stereo partly drawn) [Example 11, (4S)-4-ethyl-8-fluoro-4-hydroxy-11-((2-(hydroxymethyl)piperidin-1-yl)methyl)-9-methyl-1H-pyrano[3′,4′:6,7] indolizino[1,2-b]quinoline-3,14(4H,12H)-dione]: the IC50 is 60 nM. Further, for the setting “human, 3 days”, the “relative A549 cytotoxic potency in words” value is on record as “less potent than Example 17”.

Turning to `CC[C@@]1(O)C(=O)OCc2c1cc1n(c2=O)Cc2c-1nc1cc(F)c(C)cc1c2CN1CCCC(CO)C1` (stereo partly drawn) [Example 12, (4S)-4-ethyl-8-fluoro-4-hydroxy-11-((3-(hydroxymethyl)piperidin-1-yl)methyl)-9-methyl-1H-pyrano[3′,4′:6,7] indolizino[1,2-b]quinoline-3,14(4H,12H)-dione], the IC50 was found to be 90 nM. Further, the “relative A549 cytotoxic potency in words” value (human, 3 days) was “less potent than Example 17”.

For `CC[C@@]1(O)C(=O)OCc2c1cc1n(c2=O)Cc2c-1nc1cc(F)c(C)cc1c2CN1CCC(C(C)O)CC1` (stereo partly drawn) [Example 13, (4S)-4-ethyl-8-fluoro-4-hydroxy-11-((4-(1-hydroxyethyl)piperidin-1-yl)methyl)-9-methyl-1H-pyrano[3′,4′:6,7] indolizino[1,2-b]quinoline-3,14(4H,12H)-dione], the half-maximal inhibitory concentration (IC50) came out at 33 nM.

Turning to `CC[C@@]1(O)C(=O)OCc2c1cc1n(c2=O)Cc2c-1nc1cc(F)c(C)cc1c2CN1CCC([C@@H](C)O)CC1` [Example 15, (S)-4-ethyl-8-fluoro-4-hydroxy-11-((4-((R)-1-hydroxyethyl)piperidin-1-yl)methyl)-9-methyl-1H-pyrano[3′,4′:6,7] indolizino[1,2-b]quinoline-3,14(4H,12H)-dione], the concentration for half-maximal inhibition (IC50) is 17.6 nM.

Take `CC[C@@]1(O)C(=O)OCc2c1cc1n(c2=O)Cc2c-1nc1cc(F)c(C)cc1c2CN1CCC(O)CC1` [Example 16, (S)-4-ethyl-8-fluoro-4-hydroxy-11-((4-hydroxypiperidin-1-yl)methyl)-9-methyl-1H-pyrano[3′,4′:6,7] indolizino[1,2-b]quinoline-3,14(4H,12H)-dione]: the IC50 worked out at 81 nM.

For `CC[C@@]1(O)C(=O)OCc2c1cc1n(c2=O)Cc2c-1nc1cc(F)c(C)cc1c2CN1CCCC(O)C1` (stereo partly drawn) [Example 17, (4S)-4-ethyl-8-fluoro-4-hydroxy-11-((3-hydroxypiperidin-1-yl)methyl)-9-methyl-1H-pyrano[3′,4′:6,7] indolizino[1,2-b]quinoline-3,14(4H,12H)-dione], the “relative A549 cytotoxic potency in words” value is recorded as “most potent compound” and the IC50 was 38 nM.

For the compound `CC[C@@]1(O)C(=O)OCc2c1cc1n(c2=O)Cc2c-1nc1cc(F)c(C)cc1c2CN1CCC[C@@H](O)C1` [Example 18, (S)-4-ethyl-8-fluoro-4-hydroxy-11-(((R)-3-hydroxypiperidin-1-yl)methyl)-9-methyl-1H-pyrano[3′,4′:6,7] indolizino[1,2-b]quinoline-3,14(4H,12H)-dione], the concentration for half-maximal inhibition (IC50) amounted to 19.7 nM.

As for `CC[C@@]1(O)C(=O)OCc2c1cc1n(c2=O)Cc2c-1nc1cc(F)c(C)cc1c2CN1CCC[C@H](O)C1` [Example 19, (S)-4-ethyl-8-fluoro-4-hydroxy-11-(((S)-3-hydroxypiperidin-1-yl)methyl)-9-methyl-1H-pyrano[3′,4′:6,7] indolizino[1,2-b]quinoline-3,14(4H,12H)-dione], the 50% inhibitory concentration (IC50) was 15.7 nM. Also, the “relative A549 cytotoxic potency in words” value (human, 3 days) was “more potent than Example 17”.

For `CC[C@@]1(O)C(=O)OCc2c1cc1n(c2=O)Cc2c-1nc1cc(F)c(C)cc1c2CN1C2CCC1(CO)CC2` [Example 20, (S)-4-ethyl-8-fluoro-4-hydroxy-11-((1-(hydroxymethyl)-7-azabicyclo[2.2.1]heptan-7-yl)methyl)-9-methyl-1H-pyrano[3′,4′:6,7] indolizino[1,2-b]quinoline-3,14(4H,12H)-dione], the IC50 was 24.1 nM.

`CC[C@@]1(O)C(=O)OCc2c1cc1n(c2=O)Cc2c-1nc1cc(F)c(C)cc1c2CN1CCCC1(C)CO` (stereo partly drawn) [Example 21, (4S)-4-ethyl-8-fluoro-4-hydroxy-11-((2-(hydroxymethyl)-2-methylpyrrolidin-1-yl)methyl)-9-methyl-1H-pyrano[3′,4′:6,7] indolizino[1,2-b]quinoline-3,14(4H,12H)-dione]: the IC50 turned out to be 55 nM.

`CC[C@@]1(O)C(=O)OCc2c1cc1n(c2=O)Cc2c-1nc1cc(F)c(C)cc1c2CN1CC(C)(C)C[C@@H]1CO` [Example 22, (S)-4-ethyl-8-fluoro-4-hydroxy-11-(((R)-2-(hydroxymethyl)-4,4-dimethylpyrrolidin-1-yl)methyl)-9-methyl-1H-pyrano[3′,4′:6,7] indolizino[1,2-b]quinoline-3,14(4H,12H)-dione]: the IC50 was determined as 14.3 nM.

As to `CC[C@@]1(O)C(=O)OCc2c1cc1n(c2=O)Cc2c-1nc1cc(F)c(C)cc1c2CN1CC2C(C1CO)C2(C)C` (stereo partly drawn) [Example 23, (4S)-4-ethyl-8-fluoro-4-hydroxy-11-((2-(hydroxymethyl)-6,6-dimethyl-3-azabicyclo[3.1.0]hexan-3-yl)methyl)-9-methyl-1H-pyrano[3′,4′:6,7] indolizino[1,2-b]quinoline-3,14(4H,12H)-dione], the IC50 turned out to be 49 nM.

As to `CC[C@@]1(O)C(=O)OCc2c1cc1n(c2=O)Cc2c-1nc1cc(F)c(C)cc1c2CN1CCC(C)(CO)C1` (stereo partly drawn) [Example 24, (4S)-4-ethyl-8-fluoro-4-hydroxy-11-((3-(hydroxymethyl)-3-methylpyrrolidin-1-yl)methyl)-9-methyl-1H-pyrano[3′,4′:6,7] indolizino[1,2-b]quinoline-3,14(4H,12H)-dione], the IC50 was 43 nM.

Regarding `CC[C@@]1(O)C(=O)OCc2c1cc1n(c2=O)Cc2c-1nc1cc(F)c(C)cc1c2CN1CCC(CCO)CC1` [Example 27, (S)-4-ethyl-8-fluoro-4-hydroxy-11-((4-(2-hydroxyethyl)piperidin-1-yl)methyl)-9-methyl-1H-pyrano[3′,4′:6,7] indolizino[1,2-b]quinoline-3,14(4H,12H)-dione], the half-maximal inhibitory concentration (IC50) came to 16.8 nM.

Turning to `CC[C@@]1(O)C(=O)OCc2c1cc1n(c2=O)Cc2c-1nc1cc(F)c(C)cc1c2CN1CCC(C(O)C(C)C)CC1` (stereo partly drawn) [Example 28, (4S)-4-ethyl-8-fluoro-4-hydroxy-11-((4-(1-hydroxy-2-methylpropyl)piperidin-1-yl)methyl)-9-methyl-1H-pyrano[3′,4′:6,7] indolizino[1,2-b]quinoline-3,14(4H,12H)-dione], the half-inhibitory concentration (IC50) worked out at 74.2 nM.

As to `CC[C@@]1(O)C(=O)OCc2c1cc1n(c2=O)Cc2c-1nc1cc(F)c(C)cc1c2CN1CCC(C(O)C(F)(F)F)CC1` (stereo partly drawn) [Example 29, (4S)-4-ethyl-8-fluoro-4-hydroxy-9-methyl-11-((4-(2,2,2-trifluoro-1-hydroxyethyl)piperidin-1-yl)methyl)-1H-pyrano[3′,4′:6,7] indolizino[1,2-b]quinoline-3,14(4H,12H)-dione], the half-maximal inhibitory concentration (IC50) turned out to be 29.8 nM.

For `CC[C@@]1(O)C(=O)OCc2c1cc1n(c2=O)Cc2c-1nc1cc(F)c(C)cc1c2CN1CCC(C2(O)CCC2)CC1` [Example 30, (S)-4-ethyl-8-fluoro-4-hydroxy-11-((4-(1-hydroxycyclobutyl)piperidin-1-yl)methyl)-9-methyl-1H-pyrano[3′,4′:6,7] indolizino[1,2-b]quinoline-3,14(4H,12H)-dione], the half-maximal inhibitory concentration (IC50) amounted to 28.6 nM.
